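48-hour exposure; five concentrations; linearly interpolated endpoints. At the GI50, growth is halved.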 Activity calls are given as the source filed them. No stated cut-off is given here; in the data, active = GI50 up to about 1.1 µM and inactive = higher.
How the values were obtained:
Assay in all cases: NCI anticancer screen, dose series, 48 h
ACHN = system: ACHN
U-251 = system: U-251
NCI/ADR-RES = system: NCI/ADR-RES
MOLT-4 = system: MOLT-4
OVCAR-4 = system: OVCAR-4
NCI-H226 = system: NCI-H226
LOX IMVI = system: LOX IMVI
SF-268 = system: SF-268
HOP-62 = system: HOP-62
A549 = system: A549
NCI-H23 = system: NCI-H23
SNB-75 = system: SNB-75
SW-620 = system: SW-620
OVCAR-5 = system: OVCAR-5
HL-60 = system: HL-60
SF-539 = system: SF-539
Malme-3M = system: Malme-3M
MDA-N = system: MDA-N
NCI-H522 = system: NCI-H522
IGROV-1 = system: IGROV-1
M14 = system: M14
SN12C = system: SN12C
MDA-MB-435 = system: MDA-MB-435
SK-OV-3 = system: SK-OV-3
UACC-257 = system: UACC-257
COLO 205 = system: COLO 205
UACC-62 = system: UACC-62
SF-295 = system: SF-295
CCRF-CEM = system: CCRF-CEM
KM12 = system: KM12
SK-MEL-2 = system: SK-MEL-2
SNB-19 = system: SNB-19
RPMI-8226 = system: RPMI-8226
EKVX = system: EKVX
CAKI-1 = system: CAKI-1
Hs-578T = system: Hs-578T
OVCAR-3 = system: OVCAR-3
BT-549 = system: BT-549
HCT-15 = system: HCT-15
SK-MEL-28 = system: SK-MEL-28
TK-10 = system: TK-10
OVCAR-8 = system: OVCAR-8
HT-29 = system: HT-29
SR = system: SR
UO-31 = system: UO-31
MDA-MB-231 = system: MDA-MB-231
HCT-116 = system: HCT-116
SK-MEL-5 = system: SK-MEL-5
DU-145 = system: DU-145
K562 = system: K562
NCI-H460 = system: NCI-H460
MCF7 = system: MCF7
PC-3 = system: PC-3
786-0 = system: 786-0

Measured: GI50

CN(c1ccccc1Cl)S(=O)(=O)c1ccccc1
inactive: ACHN > 100 µM | U-251 > 100 µM | NCI/ADR-RES > 100 µM | MOLT-4 45 µM | OVCAR-4 > 100 µM | NCI-H226 > 100 µM | LOX IMVI > 100 µM | SF-268 > 100 µM | HOP-62 > 100 µM | A549 > 100 µM | NCI-H23 54.5 µM | SNB-75 > 100 µM | SW-620 > 100 µM | OVCAR-5 > 100 µM | HL-60 14.6 µM | SF-539 > 100 µM | Malme-3M > 100 µM | MDA-N > 100 µM | NCI-H522 > 100 µM | IGROV-1 > 100 µM | M14 > 100 µM | SN12C > 100 µM | MDA-MB-435 76.6 µM | SK-OV-3 93.1 µM | UACC-257 > 100 µM | COLO 205 > 100 µM | UACC-62 > 100 µM | SF-295 > 100 µM | CCRF-CEM > 100 µM | KM12 > 100 µM | SK-MEL-2 > 100 µM | SNB-19 > 100 µM | RPMI-8226 > 100 µM | EKVX 50.4 µM | CAKI-1 > 100 µM | Hs-578T 68.5 µM | OVCAR-3 > 100 µM | BT-549 56.2 µM | SK-MEL-28 > 100 µM | TK-10 > 100 µM | OVCAR-8 > 100 µM | HT-29 > 100 µM | SR 55.8 µM | UO-31 52.4 µM | MDA-MB-231 81.5 µM | HCT-116 82.4 µM | SK-MEL-5 34.9 µM | DU-145 > 100 µM | K562 51.8 µM | NCI-H460 > 100 µM | MCF7 > 100 µM | PC-3 44.3 µM | 786-0 > 100 µM
> 100 µM: HCT-15
